Earlier results, collected in US5760027A, “Use of 7-alkylidene cephalosporins to inhibit elastase activity” (Research Corporation Technologies, Inc., priority 1996, dated 1998).

Test system: b-lactamase
Settings: commercial b-lactamase inhibitors, for comparison; cited from earlier work

## O=C(O)[C@H]1/C(=C/CO)O[C@@H]2CC(=O)N21 [clavulanic acid]
  ratio at which inhibitor must be used: 200 to 1
